These results are taken from publication PMC6155227 (Molecules : A Journal of Synthetic Chemistry and Natural …, 2017).

The structures appear in SMILES notation. pEC50: −log10 of the molar value.

For data set [1], the system named is H5N1(A/Vietnam/1203/2004) strain. Briefly: microbe, parasite or virus in culture. The class given is cell-based, influenza virus A/Vietnam/1203/2004 (H5N1). The conditions noted are these: Influenza A virus, H5N1, MDCK.
The next data set deals with MDCK cells. The conditions noted are these: dog.
The next data set concerns avian influenza virus. The conditions noted are these: mouse, in vivo; cited from earlier work.
Data set [2] has as its system porcine reproductive and respiratory syndrome virus (PRRSV). The conditions noted are these: cited from earlier work.

By pEC50 is commonly meant the negative decadic logarithm of the EC50, by convention in mol/L. In the case of `CCCC(=O)c1c(O)c(CC2=C(O)C(C)(C)C(O)=C(C(C)=O)C2=O)c(O)c(Cc2c(O)c(CC3=C(O)C(C)(C)C(O)=C(C(C)=O)C3=O)c(O)c(C(=O)CCC)c2O)c1O` [Dryocrassin ABBA, dryocrassin ABBA], the pEC50 in data set [1] (72 h, read-out: EC50 anti-influenza virus activity) was 4.78. For the same molecule, in the data set on MDCK cells, the “50% toxicity concentration (TC50)” value was “greater than 400 μM”. For the same molecule, the “protection of infected mice” value with avian influenza virus was “protect mice infected with avian influenza virus”.

For the molecule `CCCC(=O)c1c(O)c(C)c(O)c(CC2=C(O)C(C)(C)C(O)=C(C(C)=O)C2=O)c1O` [Flavaspidic acid AB, flavaspidic acid AB], the virus replication entry in data set [2] is “inhibit replication”.

Usually inhibition stands for the relative decrease from the control value, in per cent. Take `CCCC(=O)c1c(O)c(CC2=C(O)C(C)(C)C(O)=C(C(C)=O)C2=O)c(O)c(CC2=C(O)C(C)(C)C(O)=C(C(C)=O)C2=O)c1O` [Filixic acid ABA, filixic acid ABA]: the inhibition at 100 µM in data set [1] (read-out: inhibition rate) was under 50%. In addition, the maximal non-cytotoxic concentration in the data set with MDCK cells was found to be 100 µM.
